In patent US9144239B2, “Macrocyclic picolinamides as fungicides” (DOW AGROSCIENCES LLC, priority 2012, dated 2015):
Read-outs that look alike come from different tables or passages of the source.

Columns and labels:
Format in all cases: in vivo
[1] = tested on: Puccinia triticina; synonym: Puccinia recondita f. sp. tritici; test: Fungicide mobility (dropline mobility test): wheat brown rust (PUCCRT); conditions: 1 ug/leaf
Outline: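 A 2 μl drop of formulated compound (EC blank, 110 ppm Triton X-100 water) was applied to a line 5 cm from the tip of primary leaves of "Yuma" wheat seedlings, 6 replicates. Inoculation with PUCCRT was done 1 day after or 3 days before application. Once disease was fully expressed on controls, the acropetal disease-free zone was measured as percent of line-to-tip distance.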

[2] = tested on: Erysiphe cichoracearum; test: Fungicidal activity: powdery mildew of cucumber (ERYSCI); conditions: Golovinomyces cichoracearum, 24 h, 1 Day Protectant, read-out: Disease Control ERYSCI 1DP
Description: Technical grades of materials were dissolved in acetone, which were then mixed with nine volumes of water containing 110 ppm Triton X-100. The fungicide solutions were applied onto wheat seedlings using an automated booth sprayer to run-off. All sprayed plants were allowed to air dry prior to further handling. Wheat plants (variety Yuma) were grown from seed in a greenhouse in 50% mineral soil/50% soil-less Metro mix until the first leaf was fully emerged, with 7-10 seedlings per pot. These plants were inoculated with an aqueous spore suspension of Septoria tritici either prior to or after fungicide treatments. After inoculation the plants were kept in 100% relative humidity (one day in a dark dew chamber followed by two to three days in a lighted dew chamber at 20° C.) to permit spores to germinate and infect the leaf. The plants were then transferred to a greenhouse set at 20° C. for disease to develop. When disease symptoms were fully expressed on the 1st leaves of untreated plants, infection levels were assessed on a scale of 0 to 100 percent disease severity. Percent disease control was calculated using the ratio of disease severity on treated plants relative to untreated plants. Evaluation of Fungicidal Activity: Powdery Mildew of Cucumber (Erysiphe cichoracearum; Bayer Code […]) Cucumber seedlings (variety Bush Pickle) were grown in soil-less Metro mix, with one plant per pot, and used in the test when 12 to 14 days old. Plants were inoculated with a spore suspension 24 hr following fungicide treatments. After inoculation the plants remained in the greenhouse set at 20° C. until disease was fully expressed. Fungicide formulation, application and disease assessment on the sprayed leaves followed the procedures as described in the Example A.

[3] = tested on: Phakopsora pachyrhizi; test: Fungicidal activity: Asian soybean rust (PHAKPA); conditions: 25 ppm; for Disease Control PHAKPA 1DP: 1 Day Protectant; for Disease Control PHAKPA 3DC: 3 Day Curative
Description: Evaluation of Fungicidal Activity: Asian Soybean Rust (Phakopsora pachyrhizi; Bayer Code […]) Technical grades of materials were dissolved in acetone, which were then mixed with nine volumes of water containing 0.011% Tween 20. The fungicide solutions were applied onto soybean seedlings using an automated booth sprayer to run-off. All sprayed plants were allowed to air dry prior to further handling. Soybean plants (variety Williams 82) were grown in soil-less Metro mix, with one plant per pot. Two weeks old seedlings were used for testing. […] Plants were incubated for 24 h in a dark dew room at 22° C. and 100% RH then transferred to a growth room at 23° C. for disease to develop. Disease severity was assessed on the sprayed leaves.

[4] = tested on: Venturia inaequalis; test: Fungicidal activity: apple scab (VENTIN); conditions: 24 h, 1 Day Protectant, read-out: Disease Control VENTIN 1 DP
Description: Technical grades of materials were dissolved in acetone, which were then mixed with nine volumes of water containing 110 ppm Triton X-100. The fungicide solutions were applied onto wheat seedlings using an automated booth sprayer to run-off. All sprayed plants were allowed to air dry prior to further handling. Wheat plants (variety Yuma) were grown from seed in a greenhouse in 50% mineral soil/50% soil-less Metro mix until the first leaf was fully emerged, with 7-10 seedlings per pot. These plants were inoculated with an aqueous spore suspension of Septoria tritici either prior to or after fungicide treatments. After inoculation the plants were kept in 100% relative humidity (one day in a dark dew chamber followed by two to three days in a lighted dew chamber at 20° C.) to permit spores to germinate and infect the leaf. The plants were then transferred to a greenhouse set at 20° C. for disease to develop. When disease symptoms were fully expressed on the 1st leaves of untreated plants, infection levels were assessed on a scale of 0 to 100 percent disease severity. Percent disease control was calculated using the ratio of disease severity on treated plants relative to untreated plants. Evaluation of Fungicidal Activity: Apple Scab (Venturia inaequalis; Bayer Code […]) Apple seedlings (variety McIntosh) were grown in soil-less Metro mix, with one plant per pot. Seedlings with two expanding young leaves at the top (older leaves at bottom of the plants were trimmed) were used in the test. Plants were inoculated with a spore suspension of Venturia inaequalis 24 hr after fungicide treatment and kept in a 22° C. dew chamber with 100% RH for 48 hr, and then moved to a greenhouse set at 20° C. for disease to develop. Fungicide formulation, application and disease assessment on the sprayed leaves followed the procedures as described in the Example A.

[5] = tested on: Leptosphaeria nodorum; test: Fungicidal activity: wheat glume blotch (LEPTNO); conditions: Parastagonospora nodorum, 24 h, 1 Day Protectant, read-out: Disease Control LEPTNO 1 DP
Description: Technical grades of materials were dissolved in acetone, which were then mixed with nine volumes of water containing 110 ppm Triton X-100. The fungicide solutions were applied onto wheat seedlings using an automated booth sprayer to run-off. All sprayed plants were allowed to air dry prior to further handling. Wheat plants (variety Yuma) were grown from seed in a greenhouse in 50% mineral soil/50% soil-less Metro mix until the first leaf was fully emerged, with 7-10 seedlings per pot. These plants were inoculated with an aqueous spore suspension of Septoria tritici either prior to or after fungicide treatments. After inoculation the plants were kept in 100% relative humidity (one day in a dark dew chamber followed by two to three days in a lighted dew chamber at 20° C.) to permit spores to germinate and infect the leaf. The plants were then transferred to a greenhouse set at 20° C. for disease to develop. When disease symptoms were fully expressed on the 1st leaves of untreated plants, infection levels were assessed on a scale of 0 to 100 percent disease severity. Percent disease control was calculated using the ratio of disease severity on treated plants relative to untreated plants. Evaluation of Fungicidal Activity: Wheat Glume Blotch (Leptosphaeria nodorum; Bayer Code […]) Wheat plants (variety Yuma) were grown from seed in a greenhouse in 50% mineral soil/50% soil-less Metro mix until the first leaf was fully emerged, with 7-10 seedlings per pot. These plants were inoculated with an aqueous spore suspension of Leptosphaeria nodorum 24 hr after fungicide treatments. After inoculation the plants were kept in 100% relative humidity (one day in a dark dew chamber followed by two days in a lighted dew chamber at 20° C.) to permit spores to germinate and infect the leaf. The plants were then transferred to a greenhouse set at 20° C. for disease to develop. Fungicide formulation, application and disease assessment followed the procedures as described in the Example A.

[6] = 24 h, 1 Day Protectant Mobility, read-out: Dropline Mobility Test PUCCRT 1DPM
[7] = 72 h, 3 Day Curative Mobility, read-out: Dropline Mobility Test PUCCRT 3DCM

Structure (SMILES) | pest or weed control at 1 µg/leaf [1, 6] [%] | pest or weed control at 1 µg/leaf [1, 7] [%] | pest or weed control at 100 ppm [2] [%] | Disease Control PHAKPA 1DP [3] | pest or weed control at 100 ppm [4] [%] | pest or weed control at 100 ppm [5] [%] | Disease Control PHAKPA 3DC [3]
COc1ccnc(C(=O)N[C@H]2COC[C@H](OCC(C)C)[C@@H](OCC(C)C)[C@H](C)OC2=O)c1OCOC(=O)C(C)C [Compound 2] | 80 to 100 | 80 to 100 | 80 to 100 | – | – | – | –
COc1ccnc(C(=O)N[C@H]2COC[C@H](OCC(C)C)[C@@H](OCC(C)C)[C@H](C)OC2=O)c1OCOC(C)=O [Compound 3, (2-((3S,7S,8S,9S)-7,8-diisobutoxy-9-methyl-2-oxo-1,5-dioxonan-3-ylcarbamoyl)-4-methoxypyridin-3-yloxy)methyl] | 80 to 100 | 80 to 100 | 0 to 80 | A (80-100) | 0 to 80 | 80 to 100 | –
COc1ccnc(C(=O)NC2COC[C@H](OCc3ccccc3)[C@@H](OCc3ccccc3)[C@H](C)OC2=O)c1OCOC(C)=O (stereo partly shown) [Compound 12] | 0 to 80 | 0 to 80 | – | – | 0 to 80 | 80 to 100 | –
CCCCO[C@H]1COC[C@H](NC(=O)c2nccc(OC)c2OCOC(C)=O)C(=O)O[C@@H](C)[C@@H]1OCCOC [Compound 54] | – | – | – | – | – | 80 to 100 | –
CCCCO[C@H]1COC[C@H](NC(=O)c2nccc(OC)c2OCOC(C)=O)C(=O)O[C@@H](C)[C@@H]1OCC(F)F [Compound 55] | – | – | – | – | – | 80 to 100 | –
COc1ccnc(C(=O)N[C@H]2COC[C@H](OC(=O)C(C)C)[C@@H](OC(=O)C(C)C)[C@H](C)OC2=O)c1OCOC(C)=O [Compound 57] | – | – | 0 to 80 | – | – | 0 to 80 | –
COc1ccnc(C(=O)N[C@H]2COC[C@H](OCCCc3ccccc3)[C@@H](OCCCc3ccccc3)[C@H](C)OC2=O)c1OCOC(C)=O [Compound 60] | 0 to 80 | – | – | – | 0 to 80 | 80 to 100 | –
COc1ccnc(C(=O)N[C@H]2COC[C@H](OC)[C@@H](OC)[C@H](C)OC2=O)c1OCOC(C)=O [Compound 65] | 0 to 80 | 0 to 80 | – | – | – | 0 to 80 | –
COc1ccnc(C(=O)N[C@H]2COC[C@H](OCCCC(F)(F)F)[C@@H](OCCCC(F)(F)F)[C@H](C)OC2=O)c1OCOC(C)=O [Compound 68] | 0 to 80 | 0 to 80 | 0 to 80 | – | 0 to 80 | 80 to 100 | –
COc1ccnc(C(=O)N[C@H]2COC[C@H](OCC(C)C)[C@@H](OC3CCCCC3)[C@H](C)OC2=O)c1OCOC(C)=O [Compound 77] | 80 to 100 | 0 to 80 | 0 to 80 | B (More than 0-Less than 80) | 0 to 80 | 80 to 100 | –
CCC(C)(C)O[C@H]1COC[C@H](NC(=O)c2nccc(OC)c2OCOC(C)=O)C(=O)O[C@@H](C)[C@@H]1OCC(C)C [Compound 78] | 0 to 80 | 0 to 80 | 80 to 100 | A (80-100) | 80 to 100 | 80 to 100 | –
COc1ccnc(C(=O)N[C@H]2COC[C@H](Oc3ccccc3)[C@@H](Oc3ccccc3)[C@H](C)OC2=O)c1OCOC(C)=O [Compound 84] | 80 to 100 | – | 0 to 80 | A (80-100) | 0 to 80 | 80 to 100 | A (80-100)
COc1ccnc(C(=O)N[C@H]2COC[C@H](OCC(C)C)[C@@H](Oc3ccccc3)[C@H](C)OC2=O)c1OCOC(C)=O [Compound 85] | 80 to 100 | 80 to 100 | 0 to 80 | – | 0 to 80 | 80 to 100 | –
COc1ccnc(C(=O)N[C@H]2COC[C@H](Oc3ccccc3)[C@@H](OCC(C)C)[C@H](C)OC2=O)c1OCOC(C)=O [Compound 86] | 80 to 100 | 0 to 80 | 0 to 80 | A (80-100) | 0 to 80 | 80 to 100 | A (80-100)
CCCO[C@H]1COC[C@H](NC(=O)c2nccc(OC)c2OCOC(C)=O)C(=O)O[C@@H](C)[C@@H]1Oc1ccccc1 [Compound 221] | – | – | – | A (80-100) | – | – | A (80-100)
CCCO[C@H]1[C@H](C)OC(=O)[C@@H](NC(=O)c2nccc(OC)c2OCOC(C)=O)COC[C@@H]1Oc1ccccc1 [Compound 222] | – | – | – | A (80-100) | – | – | A (80-100)
COc1ccnc(C(=O)N[C@H]2COC[C@H](Oc3ccc(F)cc3)[C@@H](Oc3ccc(F)cc3)[C@H](C)OC2=O)c1OC(C)=O [Compound 229, 2-(((3S,7S,8S,9S)-7,8-bis(4-fluorophenoxy)-9-methyl-2-oxo-1,5-dioxonan-3-yl)carbamoyl)-4-methoxypyridin-3-yl acetate] | – | – | 0 to 80 | – | – | 80 to 100 | –
COc1ccnc(C(=O)N[C@H]2COC[C@H](Oc3ccc(F)cc3)[C@@H](Oc3ccc(F)cc3)[C@H](C)OC2=O)c1OCOC(C)=O [Compound 231] | – | – | 0 to 80 | – | 0 to 80 | 80 to 100 | –
